The target of one experiment is T1, HLA-B∗39:01 (Homo sapiens, UniProt P01889, A182T/A93T/A95T/C349S/D138N/D201E/E176V/E187T/E204Q/K202T/Q94N/R155S/R180L/S121R/Y140F/Y91C).
T1 construct: made in house
The experiment is described as follows: biochemical. It is filed as binding.

Experiment [1] addresses T2, HLA-B∗39:06 (Homo sapiens, UniProt P01889, A182T/A93T/A95T/C349S/D138N/D201E/E176V/E187T/E204Q/K202T/L119W/Q94N/R155S/R180L/S121T/Y140F/Y91C). The experiment can be described thus: biochemical. It is filed as binding.
For experiment [2], the target named is T3, HLA-B∗38:01 (Homo sapiens, UniProt P01889, A182T/A93T/A95T/C349S/D138N/D201E/D98Y/E176V/E187T/E204Q/G107R/K202T/L105A/N104I/Q94N/R106L/R155S/R180L/S101N/S121R/Y140F/Y91C). The experiment can be described thus: biochemical.
The target of experiment [3] is T2, HLA-B∗39:06. The note with it: cited from earlier work. Here is the method: We previously reported the sequences of peptides endogenously bound to and eluted from HLA-B∗39:06 molecules purified from the human lymphoblastoid cell line C1R/HLA-B∗39:06 ([26]). […] Our strategy was based on the prior seminal observations of Ploegh et al. ([27]) that the incubation of cells at 26 °C allows for empty class I MHC molecules to reach the cell surface, and that the MHC can be stabilized if a binding peptide is also included. […] Assays to quantitatively measure peptide binding to purified B∗39:06 and B∗39:01 molecules were based on the inhibition of binding of a high-affinity radiolabeled peptide and performed as described ([26]).

Experiment [4] concerns the target HLA-B∗39:06 (purified MHC molecules) (human). The experiment can be described thus: radioligand binding.
The target of experiment [5] is HLA-B∗39:01 (purified MHC molecules) (human). The experiment can be described thus: radioligand binding.
Experiment [6] addresses HLA-B∗38:01 (purified MHC molecules) (human). The experiment can be described thus: radioligand binding.
Experiment [7] has as its target T3, HLA-B∗38:01. The arrangement: made in house. Particulars: read-out: IC50 of the probe peptide (HLA-B∗38:01 assay); cited from earlier work.
Experiment [8] addresses HLA-B∗38:01 (purified MHC molecules) (human). The experiment is described as follows: radioligand binding; cell-free competitive assay as for B∗39:06, with purified HLA-B∗38:01 and radiolabelled … as the probe.

Like-named read-outs stand apart in the source and are kept apart here. No end group written: not given here.

A word on the IC50: it is the midpoint of a concentration-inhibition curve. Regarding `CC(C)C[C@H](NC(=O)[C@H](CS)NC(=O)[C@@H]1CCCN1C(=O)[C@H](CO)NC(=O)[C@H](CO)NC(=O)[C@H](Cc1c[nH]cn1)NC(=O)[C@@H](N)CC(N)=O)C(=O)N[C@@H](CCC(=O)O)C(=O)N[C@@H](CCC(N)=O)C(=O)N[C@@H](Cc1ccccc1)C(=O)O`, the IC50 against HLA-B∗39:01 was 25700 nM; against HLA-B∗39:06 [1], > 50000 nM.

Regarding `CC(C)C[C@H](NC(=O)[C@H](C)NC(=O)[C@H](CC(N)=O)NC(=O)[C@H](CCC(=O)O)NC(=O)[C@@H](NC(=O)[C@H](C)NC(=O)[C@@H](NC(=O)[C@H](Cc1c[nH]cn1)NC(=O)[C@@H](N)CO)C(C)C)C(C)C)C(=O)O` [SHVAVENAL, reference compound], the IC50 amounted to 11 nM against HLA-B∗39:01, 321 nM on HLA-B∗38:01 [2] and 696 nM against HLA-B∗39:06 [1].

As for DHAVVVGV, the “rank of binding to HLA-B∗39:06 among the candidate endogenous ligands” value on HLA-B∗39:06 [3] (cell-free competitive assay, purified HLA-B∗39:06 and high-affinity radiolabeled ligand, also data not shown) is “by far the weakest HLA-B∗39:06 binder among the candidates”.

Turning to FLFLFAVG, the IC50 is 17900 nM against HLA-B∗39:01, > 50000 nM against HLA-B∗38:01 [2] and 405 nM at HLA-B∗39:06 [1].

Regarding FRLLCALTSL, the IC50 was 290 nM against HLA-B∗39:01, 2760 nM at HLA-B∗38:01 [2] and 7.4 nM against HLA-B∗39:06 [1].

With “FRYQGHVGA [Homo sapiens proteasome subunit 127–135, reference compound]”, on HLA-B∗39:06 [3] (unlabeled version of the radiolabeled probe, read-out: IC50 of the probe peptide for B∗39:06), the IC50 was 24 nM.

As to MRLLPLLA, the IC50 on HLA-B∗39:01 was 62 nM; on HLA-B∗38:01 [2] it was 44500 nM; at HLA-B∗39:06 [1], 41 nM.

Turning to “MRLLPLLA (human insulin, position 5, 8mer) (peptide)”, the half-inhibitory concentration (IC50) in experiment [4] was 41 nM; in [5], 62 nM; in experiment [6], 44500 nM.

Take MRLLPLLAL [MRLLPLLAL]: the half-inhibitory concentration (IC50) against HLA-B∗39:01 was determined as 14 nM; on HLA-B∗38:01 [2], 850 nM; against HLA-B∗39:06 [1], 677 nM.

Consider NRVMLPKA, for which the IC50 at HLA-B∗39:01 was 85 nM; at HLA-B∗39:06 [1] it was 41 nM.

As for “NRVMLPKA (NLRP2, position 320, 8mer) (peptide)”, the IC50 stood at 41 nM in [4] and 85 nM in experiment [5].

Regarding NRVMLPKAA, the IC50 at HLA-B∗39:01 was 35 nM; against HLA-B∗38:01 [2], > 50000 nM; against HLA-B∗39:06 [1] it was 14 nM.

On to SASIPLTVVA, for which the results for the IC50 at HLA-B∗39:01, on HLA-B∗38:01 [2] and against HLA-B∗39:06 [1] were 30900 nM, > 50000 nM and 310 nM, respectively.

With SHLVEALYL, the half-inhibitory concentration (IC50) was 5250 nM on HLA-B∗39:01, 10 nM on HLA-B∗38:01 [2] and 35600 nM on HLA-B∗39:06 [1].

Take THFPHQVIL: the IC50 was 73 nM at HLA-B∗39:01, 142 nM at HLA-B∗38:01 [2] and 2600 nM on HLA-B∗39:06 [1].

On to TNLFLFLFAV, for which the values for the IC50 against HLA-B∗39:01, on HLA-B∗38:01 [2] and against HLA-B∗39:06 [1] were 3950 nM, 6690 nM and 354 nM, respectively.

With WMRLLPLLA, the IC50 at HLA-B∗39:01 is 865 nM; against HLA-B∗38:01 [2], > 50000 nM; at HLA-B∗39:06 [1] it was 155 nM.

With YHFLQIPT, the IC50 against HLA-B∗39:01 is 660 nM; on HLA-B∗38:01 [2] it was 9750 nM; against HLA-B∗39:06 [1], 151 nM.

For “YHFLQIPT (human G6Pase 2, position 307) (peptide)”, the IC50 in experiment [4] was 151 nM; in experiment [5] it was 660 nM; in [6], 9750 nM.

For the molecule YHIPGDTLF, the IC50 at HLA-B∗38:01 [7] was 1.4 nM.

… (DDX3X, position 2) (peptide): the IC50 was determined as 696 nM in experiment [4], 11 nM in experiment [5] and 321 nM in experiment [6].

In [6], “… (Variola virus RNA helicase 346–354) (peptide)” yielded an IC50 of 1.4 nM.

Consider “… (human insulin, position 5, 9mer) (peptide)”, for which the results for the IC50 in [4], in experiment [5] and in experiment [6] were 677 nM, 14 nM and 850 nM, respectively.

B1: … (Homo sapiens proteasome subunit 127–135) (peptide)
peptide: FRYQGHVGA
modifications: not fully specified
As for B1, the 50% inhibitory concentration (IC50) in experiment [4] came out at 24 nM.

B2: … (human G6Pase 2, position 328) (peptide)
peptide: SASIPLTVVA
B2: the IC50 was 310 nM in experiment [4], 30900 nM in experiment [5] and > 50000 nM in [8].

B3: … (NLRP2 320 to 328), free peptide (peptide)
peptide: NRVMLPKAA
For the molecule B3, the IC50 in experiment [4] was 14 nM; in [5] it was 35 nM; in [8], > 50000 nM.

B4: … (human insulin, position 4) (peptide)
peptide: WMRLLPLLA
Consider B4, for which the IC50 in [4] was 155 nM; in [5], 865 nM; in experiment [8] it was > 50000 nM.

B5: FLFLFAVG (human G6Pase 2, position 213) (peptide)
peptide: FLFLFAVG
On to B5, for which the results for the IC50 in [4], in experiment [5] and in [8] were 405 nM, 17900 nM and > 50000 nM, respectively.

Source of the values: paper PMC11422593, “Structural and biochemical analysis of highly similar HLA-B allotypes differentially associated with type 1 diabetes” (The Journal of Biological Chemistry, 2024).
